ChEMBL document CHEMBL1201862, “PubChem BioAssay data set” (2004)
Active and inactive are the calls of the source.

Columns and labels:
Ion channel NompC = Ion channel NompC (Danio rerio, UniProt Q7T1G6); assay: Fluorescence counterscreen assay for TRPML3 agonists: dose response cell-based high-throughput screening assay to identify agonists of the transient receptor potential channel N1 (TRPN1). [Related pubchem assays: 1526, 1424, 1448 ]; format: functional
Mucolipin-3 = Mucolipin-3 (Homo sapiens, UniProt Q8TDD5); assay: Dose response cell-based high-throughput screening assay for agonists of the transient receptor potential channel ML3 (TRPML3). [Related pubchem assays: 1526, 1424, 1448 ]; format: functional
[1] = molecular target: Sphingosine 1-phosphate receptor 3 (Homo sapiens, UniProt Q99500); assay: Dose response cell-based high throughput screening assay for antagonists of the Sphingosine 1-Phosphate Receptor 3 (S1P3). [Related pubchem assays: 1429, 485 ]; format: functional
[2] = growth suppression of beta-catenin-knockout colon cells, dose response, cell-based, HCT116, human colon tumor (AID 1045); format: functional;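 also: HCT116 colon tumor cells with beta catenin knocked out; cells exposed to compound for 60 hours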
[3] = molecular target: 5-hydroxytryptamine receptor 1E (Homo sapiens, UniProt P28566); assay: Counterscreen assay for S1P3 antagonists: Dose response cell-based high throughput screening assay to identify antagonists of the 5-Hydroxytryptamine Receptor Subtype 1E (5HT1E). [Related pubchem assays: 1429, 485 ]; format: functional
[4] = growth suppression of PTEN-null colon cells, dose response, cell-based, HCT116 PTEN knockout (AID 1047); format: functional;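 also: HCT116 colon tumor cells with PTEN knocked out; cells exposed to compound for 60 hours before readout; potency for loss of cell viability measured by luminescence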
[5] = molecular target: T1, E3 ubiquitin-protein ligase XIAP (Homo sapiens, UniProt P98170); assay: XIAP antagonists, biochemical, IAP family, fluorescence polarization (AID 1018); format: functional
[6] = molecular target: T1, E3 ubiquitin-protein ligase XIAP; assay: Counter Screen using XIAP-Bir3 for Chemical Antagonists of Bir1/2 domains of IAP-family anti-apoptotic proteins. [Related pubchem assays (depositor defined):AID1018, AID1449, AID1514, AID1638, AID1749, AID1750, AID488957, AID488963]
Streptococcus = assay: Streptococcus pyogenes growth inhibition counter-screen, dose response, counter-screen for streptokinase expression inhibitor project, luminescence, BacTiter-Glo, strain UMAA2166 (AID 2477); format: functional, organism-based
Streptokinase A = molecular target: T2, Streptokinase A (Streptococcus pyogenes serotype M1, UniProt P10520); assay: Absorbance Microorganism-Based Dose Response Follow up to Identify Inhibitors of Streptokinase Expression. [Related pubchem assays: 1677 (Project Summary), 1915, 1914, 1902 (Retest at Dose), 1900 (Counter Screen), 1662 (Primary HTS)]; format: functional, Streptococcus pyogenes M1 GAS
T2 sequence (P10520 whole entry): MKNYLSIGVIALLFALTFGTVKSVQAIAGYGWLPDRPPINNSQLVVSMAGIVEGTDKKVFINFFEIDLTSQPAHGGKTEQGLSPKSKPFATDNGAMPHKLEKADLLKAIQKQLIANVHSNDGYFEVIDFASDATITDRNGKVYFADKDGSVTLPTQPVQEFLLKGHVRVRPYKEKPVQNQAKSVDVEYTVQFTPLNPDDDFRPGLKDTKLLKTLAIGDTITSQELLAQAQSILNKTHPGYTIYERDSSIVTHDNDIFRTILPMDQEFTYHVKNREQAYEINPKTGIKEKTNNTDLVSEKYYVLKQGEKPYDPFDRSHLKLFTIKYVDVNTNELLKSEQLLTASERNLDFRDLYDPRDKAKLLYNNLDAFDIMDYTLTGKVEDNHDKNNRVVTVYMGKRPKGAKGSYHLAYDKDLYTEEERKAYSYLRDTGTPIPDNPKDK

[7] = molecular target: Peroxisome proliferator-activated receptor gamma/Nuclear receptor coactivator 1 (Homo sapiens, UniProt P37231); assay: TR-FRET dose response biochemical High Throughput Screening assay for agonists of the steroid receptor coactivator 1 (SRC-1) recruitment by the peroxisome proliferator-activated receptor gamma (PPAR gamma): non-selective agonists. [Related pubchem assays (depositor defined):AID1300, AID1808, AID504735, AID631]; format: protein assay
[8] = molecular target: Peroxisome proliferator-activated receptor gamma/Nuclear receptor coactivator 2 (Homo sapiens, UniProt P37231); assay: (§1) TR-FRET dose response biochemical High Throughput Screening assay for agonists of the steroid receptor coactivator 2 (SRC-2) recruitment by the peroxisome proliferator-activated receptor gamma (PPAR gamma): non-selective agonists. [Related pubchem assays: 1297, 1032 ]; format: functional
[9] = molecular target: Peroxisome proliferator-activated receptor gamma/Nuclear receptor corepressor 2 (Homo sapiens, UniProt P37231+Q9Y618); assay: Counterscreen for NR2E3 inverse agonists: TR-FRET-based biochemical high throughput dose response assay to identify inverse agonists of the interaction between peroxisome proliferator-activated receptor gamma (PPARg) and nuclear receptor co-repressor 2 (NCOR2).; format: functional
[10] = molecular target: Photoreceptor-specific nuclear receptor (Homo sapiens, UniProt Q9Y5X4); assay: NR2E3 inverse agonists, dose response, biochemical, TR-FRET (AID 463256); format: functional
[11] = molecular target: Protein-tyrosine kinase 2-beta (Homo sapiens, UniProt Q14289);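 also: potency of inhibitors of PYK2 kinase phosphorylation of poly-GT substrate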
[12] = molecular target: Peroxisome proliferator-activated receptor gamma/Nuclear receptor coactivator 3 (Homo sapiens, UniProt P37231); assay: as §1, with “3 (SRC-3)” for “2 (SRC-2)”, “1301 (Confirmation screen.), 1048 (Primary screen.)]” for “1297, 1032 ]”; format: functional
NADPH oxidase 1 = NADPH oxidase 1 (Homo sapiens, UniProt Q9Y5S8); format: functional, cell-based;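 also: Cell-based assay with luminescence read-out, IC50 derived from inhibitor dose-response curves; intracellular ROS from endogenous NOX1 in intact HT29 colon cancer cells; potency of inhibitors that lower the ROS luminescence signal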

T1 sequence (P98170 whole entry): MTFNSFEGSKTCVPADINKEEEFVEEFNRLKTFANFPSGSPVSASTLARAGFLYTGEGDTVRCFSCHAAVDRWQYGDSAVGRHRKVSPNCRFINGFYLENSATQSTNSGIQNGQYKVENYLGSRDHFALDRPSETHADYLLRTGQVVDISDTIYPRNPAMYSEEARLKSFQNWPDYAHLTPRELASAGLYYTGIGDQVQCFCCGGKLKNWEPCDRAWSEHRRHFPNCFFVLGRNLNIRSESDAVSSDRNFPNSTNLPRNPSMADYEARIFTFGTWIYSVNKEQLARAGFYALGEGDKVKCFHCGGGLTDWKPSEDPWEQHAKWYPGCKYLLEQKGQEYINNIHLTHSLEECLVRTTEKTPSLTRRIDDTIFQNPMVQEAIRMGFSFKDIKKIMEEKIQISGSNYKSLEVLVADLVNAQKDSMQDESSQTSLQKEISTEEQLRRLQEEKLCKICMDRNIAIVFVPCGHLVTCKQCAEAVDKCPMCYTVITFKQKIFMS
Chain of Ion channel NompC (Q7T1G6 whole entry): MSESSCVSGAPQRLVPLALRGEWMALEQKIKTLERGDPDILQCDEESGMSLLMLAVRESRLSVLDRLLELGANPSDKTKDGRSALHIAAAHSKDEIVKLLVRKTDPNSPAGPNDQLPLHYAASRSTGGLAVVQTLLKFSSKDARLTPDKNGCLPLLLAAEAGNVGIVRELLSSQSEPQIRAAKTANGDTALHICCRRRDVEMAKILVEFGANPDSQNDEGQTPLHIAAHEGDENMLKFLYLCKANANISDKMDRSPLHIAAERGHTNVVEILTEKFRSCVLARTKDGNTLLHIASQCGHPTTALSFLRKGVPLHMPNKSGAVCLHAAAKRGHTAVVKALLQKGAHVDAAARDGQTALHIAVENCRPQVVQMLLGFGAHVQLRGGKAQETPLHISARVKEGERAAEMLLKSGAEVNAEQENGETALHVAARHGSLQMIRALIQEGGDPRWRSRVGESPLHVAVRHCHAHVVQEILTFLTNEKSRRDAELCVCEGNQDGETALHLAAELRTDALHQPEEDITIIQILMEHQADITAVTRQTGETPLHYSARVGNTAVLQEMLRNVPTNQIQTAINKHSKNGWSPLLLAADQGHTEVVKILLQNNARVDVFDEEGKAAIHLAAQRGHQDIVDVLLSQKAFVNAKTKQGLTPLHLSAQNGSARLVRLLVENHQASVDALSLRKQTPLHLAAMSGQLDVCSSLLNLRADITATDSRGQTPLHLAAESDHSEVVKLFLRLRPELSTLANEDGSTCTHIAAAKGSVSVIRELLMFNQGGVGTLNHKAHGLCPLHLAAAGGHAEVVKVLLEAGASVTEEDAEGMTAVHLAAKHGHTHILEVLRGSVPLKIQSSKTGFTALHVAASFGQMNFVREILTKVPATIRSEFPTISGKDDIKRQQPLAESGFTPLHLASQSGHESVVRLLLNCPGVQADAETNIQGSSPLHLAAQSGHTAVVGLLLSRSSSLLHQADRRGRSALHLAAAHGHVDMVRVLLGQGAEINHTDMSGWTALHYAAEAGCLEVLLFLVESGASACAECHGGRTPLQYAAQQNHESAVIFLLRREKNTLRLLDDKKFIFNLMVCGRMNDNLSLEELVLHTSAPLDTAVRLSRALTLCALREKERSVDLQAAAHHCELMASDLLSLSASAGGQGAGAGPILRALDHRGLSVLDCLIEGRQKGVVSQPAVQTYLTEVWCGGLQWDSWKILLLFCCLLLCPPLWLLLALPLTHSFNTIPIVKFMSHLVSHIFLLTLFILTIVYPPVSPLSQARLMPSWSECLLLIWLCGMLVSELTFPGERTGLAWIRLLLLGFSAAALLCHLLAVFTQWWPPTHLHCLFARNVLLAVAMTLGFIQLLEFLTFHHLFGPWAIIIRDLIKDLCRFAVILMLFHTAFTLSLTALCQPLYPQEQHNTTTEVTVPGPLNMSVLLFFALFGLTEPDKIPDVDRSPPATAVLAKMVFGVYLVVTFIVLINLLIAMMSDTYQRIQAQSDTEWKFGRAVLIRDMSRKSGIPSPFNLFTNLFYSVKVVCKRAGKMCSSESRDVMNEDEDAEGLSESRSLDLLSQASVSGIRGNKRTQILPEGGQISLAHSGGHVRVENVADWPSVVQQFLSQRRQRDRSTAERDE
Chain of Photoreceptor-specific nuclear receptor (Q9Y5X4 whole entry): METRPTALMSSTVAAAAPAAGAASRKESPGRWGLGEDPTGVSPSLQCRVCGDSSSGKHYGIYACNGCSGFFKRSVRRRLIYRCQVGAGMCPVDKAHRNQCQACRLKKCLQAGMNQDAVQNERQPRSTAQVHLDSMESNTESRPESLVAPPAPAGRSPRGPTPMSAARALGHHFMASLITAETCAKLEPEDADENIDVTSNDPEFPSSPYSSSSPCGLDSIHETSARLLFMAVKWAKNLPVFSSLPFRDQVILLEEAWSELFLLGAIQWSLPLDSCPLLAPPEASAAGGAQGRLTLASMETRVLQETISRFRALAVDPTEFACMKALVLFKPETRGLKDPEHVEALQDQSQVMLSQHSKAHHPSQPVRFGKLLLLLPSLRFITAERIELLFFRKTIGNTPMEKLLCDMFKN
Chain of Protein-tyrosine kinase 2-beta (Q14289 whole entry): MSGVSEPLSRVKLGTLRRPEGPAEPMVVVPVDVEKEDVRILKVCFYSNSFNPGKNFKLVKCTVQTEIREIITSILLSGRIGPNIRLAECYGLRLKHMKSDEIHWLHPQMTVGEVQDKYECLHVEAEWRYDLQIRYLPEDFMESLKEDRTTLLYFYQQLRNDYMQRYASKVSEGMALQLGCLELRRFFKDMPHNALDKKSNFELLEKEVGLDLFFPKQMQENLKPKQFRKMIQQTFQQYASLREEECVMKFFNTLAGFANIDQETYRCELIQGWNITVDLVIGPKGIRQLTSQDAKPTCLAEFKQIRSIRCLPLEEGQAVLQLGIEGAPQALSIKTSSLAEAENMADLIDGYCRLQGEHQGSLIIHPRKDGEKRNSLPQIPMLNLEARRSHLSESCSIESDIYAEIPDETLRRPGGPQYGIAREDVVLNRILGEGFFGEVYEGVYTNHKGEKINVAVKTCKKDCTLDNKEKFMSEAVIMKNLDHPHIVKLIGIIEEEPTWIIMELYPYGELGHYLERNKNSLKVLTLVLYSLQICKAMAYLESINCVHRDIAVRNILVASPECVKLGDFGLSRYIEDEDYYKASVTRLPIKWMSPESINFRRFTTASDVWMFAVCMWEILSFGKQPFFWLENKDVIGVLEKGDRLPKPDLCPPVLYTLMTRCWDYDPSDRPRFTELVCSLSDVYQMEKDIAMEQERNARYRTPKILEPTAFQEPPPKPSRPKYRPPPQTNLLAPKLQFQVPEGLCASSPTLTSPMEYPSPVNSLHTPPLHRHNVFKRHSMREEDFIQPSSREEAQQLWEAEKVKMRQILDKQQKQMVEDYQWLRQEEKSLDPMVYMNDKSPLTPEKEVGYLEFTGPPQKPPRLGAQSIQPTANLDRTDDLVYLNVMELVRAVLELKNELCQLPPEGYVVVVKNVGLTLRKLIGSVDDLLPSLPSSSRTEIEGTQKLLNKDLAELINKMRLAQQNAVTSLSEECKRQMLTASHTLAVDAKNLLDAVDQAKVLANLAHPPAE
Chain of 5-hydroxytryptamine receptor 1E (P28566 whole entry): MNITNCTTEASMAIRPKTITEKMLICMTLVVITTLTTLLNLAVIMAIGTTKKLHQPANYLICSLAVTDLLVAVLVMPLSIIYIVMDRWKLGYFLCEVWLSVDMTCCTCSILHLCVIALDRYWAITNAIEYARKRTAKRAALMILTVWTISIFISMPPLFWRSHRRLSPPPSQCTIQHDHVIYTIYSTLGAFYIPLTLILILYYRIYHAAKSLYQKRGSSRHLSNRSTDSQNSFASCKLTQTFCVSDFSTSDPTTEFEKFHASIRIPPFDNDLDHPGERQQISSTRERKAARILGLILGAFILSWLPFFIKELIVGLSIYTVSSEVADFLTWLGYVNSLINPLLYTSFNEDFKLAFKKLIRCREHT
Chain of Mucolipin-3 (Q8TDD5 whole entry): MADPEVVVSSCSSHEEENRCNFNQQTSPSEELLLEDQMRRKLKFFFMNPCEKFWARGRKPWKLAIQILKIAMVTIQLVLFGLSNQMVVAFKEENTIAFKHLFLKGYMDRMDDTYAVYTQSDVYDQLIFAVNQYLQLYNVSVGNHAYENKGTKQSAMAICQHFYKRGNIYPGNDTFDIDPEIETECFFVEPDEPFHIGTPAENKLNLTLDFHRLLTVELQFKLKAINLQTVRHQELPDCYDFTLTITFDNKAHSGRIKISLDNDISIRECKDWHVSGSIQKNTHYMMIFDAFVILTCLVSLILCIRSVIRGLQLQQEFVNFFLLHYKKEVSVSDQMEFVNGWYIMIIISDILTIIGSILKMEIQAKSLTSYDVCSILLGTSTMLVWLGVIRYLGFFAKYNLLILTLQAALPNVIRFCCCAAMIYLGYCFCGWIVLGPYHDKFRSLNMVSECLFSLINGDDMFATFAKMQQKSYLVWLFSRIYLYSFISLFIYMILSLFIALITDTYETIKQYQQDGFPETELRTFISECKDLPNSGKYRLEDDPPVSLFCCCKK
Chain of Sphingosine 1-phosphate receptor 3 (Q99500 whole entry): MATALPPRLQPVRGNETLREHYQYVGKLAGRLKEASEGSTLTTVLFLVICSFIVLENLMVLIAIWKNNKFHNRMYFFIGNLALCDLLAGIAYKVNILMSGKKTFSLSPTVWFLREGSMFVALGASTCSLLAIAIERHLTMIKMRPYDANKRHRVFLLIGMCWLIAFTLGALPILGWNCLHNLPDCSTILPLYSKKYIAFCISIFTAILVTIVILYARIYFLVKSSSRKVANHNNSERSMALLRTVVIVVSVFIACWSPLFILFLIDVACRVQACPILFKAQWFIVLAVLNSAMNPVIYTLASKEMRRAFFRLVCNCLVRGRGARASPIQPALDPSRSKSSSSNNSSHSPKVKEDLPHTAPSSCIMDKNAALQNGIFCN

Cc1ccccc1S(=O)(=O)c1c(C)cc(C)n(C(C)C)c1=O
EC50 (Ion channel NompC): > 29.9 µM (not active) | EC50 (Mucolipin-3): 2.44 µM (active)

O=C(OC(C(=O)Nc1cccc(C(F)(F)F)c1)c1ccccc1)C1CCCCC1 (configuration not stated)
IC50 [1]: 7.69 µM (active) | EC50 [2]: 518 µM (active) | IC50 [3]: 11.2 µM (not active) | EC50 [4]: 118 µM (active)

O=C(CCN1C(=O)C2C3C=CC(C3)C2C1=O)N1CCN(c2ccccc2F)CC1 (configuration not stated)
IC50 [5]: > 100 µM (not active) | IC50 [6]: > 100 µM (inactive)

CC(C)Oc1nc(-c2ccc(Cl)cc2)nc2ccccc12
EC50 (Streptococcus): 51.2 µM (active) | EC50 (Streptokinase A): 6.9 µM (active)

COc1ccc(C(=O)Nc2nc3ccc4nc(C)sc4c3s2)cc1
EC50 [7]: 45.2 µM (inactive) | EC50 [8]: 37.9 µM (not active) | IC50 [9]: 2.19 µM (active) | IC50 [10]: 0.862 µM (active) | IC50 [11]: 1.45 µM (active) | EC50 [12]: 58.7 µM (not active)

Clc1ccc2c(c1)Nc1ccccc1S2
IC50 (NADPH oxidase 1): 0.254 µM (active)
